Results from patent US20110086759A1, “CHEMICAL COMPOUNDS” (SYNGENTA CROP PROTECTION, INC., priority 2007, published 2011).

Legend:
Type in all cases: in vivo
[1] = tested on: Alopecurus myosuroides (ALOMY); assay: Pre-emergence biological efficacy, glasshouse pot test; details: 312 h
Procedure, shortened: (§1)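 One day after sowing in standard soil, pots were sprayed with compound in acetone/water (50:50) with 0.5% Tween 20, at 1000 or 250 g/ha. Plants grew at 24/16° C day/night, 14 h light, 65% humidity. Damage was scored after 13 days (0 = none, 100 = total).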

[2] = tested on: Amaranthus retoflexus (AMARE); assay: as above; details: Amaranthus retroflexus, 312 h
Procedure, shortened: as §1

[3] = tested on: Echinochloa crus-galli (ECHCG); assay: as above; details: 312 h
Procedure, shortened: as §1

[4] = tested on: Ipomea hederaceae (IPOHE); assay: as above; details: Ipomoea hederacea, 312 h
Procedure, shortened: as §1

Setaria faberi (SETFA) [5] = assay: as above; details: 312 h
Procedure, shortened: as §1

Solanum nigrum (SOLNI) [6] = assay: as above; details: 312 h
Procedure, shortened: as §1

[7] = tested on: Alopecurus myosuroides (ALOMY); assay: Post-emergence biological efficacy, glasshouse pot test; details: 312 h
Procedure, shortened: (§2)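 Pot-grown weeds were sprayed 8 days after sowing with test compound in acetone/water (50:50) with 0.5% Tween 20 at 1000 or 250 g/ha. Glasshouse at 24/16° C day/night, 14 h light, 65% humidity. Damage scored 0-100 (100 = total damage) after 13 days.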

[8] = tested on: Amaranthus retoflexus (AMARE); assay: as above; details: Amaranthus retroflexus, 312 h
Procedure, shortened: as §2

[9] = tested on: Echinochloa crus-galli (ECHCG); assay: as above; details: 312 h
Procedure, shortened: as §2

[10] = tested on: Ipomea hederaceae (IPOHE); assay: as above; details: Ipomoea hederacea, 312 h
Procedure, shortened: as §2

Setaria faberi (SETFA) [11] = assay: as above; details: 312 h
Procedure, shortened: as §2

Solanum nigrum (SOLNI) [12] = assay: as above; details: 312 h
Procedure, shortened: as §2

[13] = pre-emergence, 1,000 g/ha, evaluated after 13 days (100=total damage; 0=no damage), read-out: Percentage damage ALOMY
[14] = pre-emergence, 1,000 g/ha, evaluated after 13 days (100=total damage; 0=no damage), read-out: Percentage damage AMARE
[15] = pre-emergence, 1,000 g/ha, evaluated after 13 days (100=total damage; 0=no damage), read-out: Percentage damage ECHCG
[16] = pre-emergence, 1,000 g/ha, evaluated after 13 days (100=total damage; 0=no damage), read-out: Percentage damage IPOHE
[17] = pre-emergence, 1,000 g/ha, evaluated after 13 days (100=total damage; 0=no damage), read-out: Percentage damage SETFA
[18] = pre-emergence, 1,000 g/ha, evaluated after 13 days (100=total damage; 0=no damage), read-out: Percentage damage SOLNI
[19] = post-emergence, 1,000 g/ha, evaluated after 13 days (100=total damage; 0=no damage), read-out: Percentage damage caused to weed species, ALOMY
[20] = post-emergence, 1,000 g/ha, evaluated after 13 days (100=total damage; 0=no damage), read-out: Percentage damage caused to weed species, AMARE
[21] = post-emergence, 1,000 g/ha, evaluated after 13 days (100=total damage; 0=no damage), read-out: Percentage damage caused to weed species, ECHCG
[22] = post-emergence, 1,000 g/ha, evaluated after 13 days (100=total damage; 0=no damage), read-out: Percentage damage caused to weed species, IPOHE
[23] = post-emergence, 1,000 g/ha, evaluated after 13 days (100=total damage; 0=no damage), read-out: Percentage damage caused to weed species, SETFA
[24] = post-emergence, 1,000 g/ha, evaluated after 13 days (100=total damage; 0=no damage), read-out: Percentage damage caused to weed species, SOLNI
[25] = pre-emergence, rate 1,000 g/ha, evaluated after 13 days (100=total damage to plant; 0=no damage), read-out: Percentage damage caused to weed species, ALOMY
[26] = pre-emergence, rate 1,000 g/ha, evaluated after 13 days (100=total damage to plant; 0=no damage), read-out: Percentage damage caused to weed species, AMARE
[27] = pre-emergence, rate 1,000 g/ha, evaluated after 13 days (100=total damage to plant; 0=no damage), read-out: Percentage damage caused to weed species, ECHCG
[28] = pre-emergence, rate 1,000 g/ha, evaluated after 13 days (100=total damage to plant; 0=no damage), read-out: Percentage damage caused to weed species, IPOHE
[29] = pre-emergence, rate 1,000 g/ha, evaluated after 13 days (100=total damage to plant; 0=no damage), read-out: Percentage damage caused to weed species, SETFA
[30] = pre-emergence, rate 1,000 g/ha, evaluated after 13 days (100=total damage to plant; 0=no damage), read-out: Percentage damage caused to weed species, SOLNI
[31] = Rate 1,000 g/ha, post-emergence spray, evaluated after 13 days (100=total damage to plant; 0=no damage to plant), read-out: Percentage damage caused to weed species, post-emergence, ALOMY
[32] = Rate 1,000 g/ha, post-emergence spray, evaluated after 13 days (100=total damage to plant; 0=no damage to plant), read-out: Percentage damage caused to weed species, post-emergence, AMARE
[33] = Rate 1,000 g/ha, post-emergence spray, evaluated after 13 days (100=total damage to plant; 0=no damage to plant), read-out: Percentage damage caused to weed species, post-emergence, ECHCG
[34] = Rate 1,000 g/ha, post-emergence spray, evaluated after 13 days (100=total damage to plant; 0=no damage to plant), read-out: Percentage damage caused to weed species, post-emergence, IPOHE
[35] = Rate 1,000 g/ha, post-emergence spray, evaluated after 13 days (100=total damage to plant; 0=no damage to plant), read-out: Percentage damage caused to weed species, post-emergence, SETFA
[36] = Rate 1,000 g/ha, post-emergence spray, evaluated after 13 days (100=total damage to plant; 0=no damage to plant), read-out: Percentage damage caused to weed species, post-emergence, SOLNI

| SMILES | pest or weed control at 1000 g/ha [1, 13] [%] | pest or weed control at 1000 g/ha [2, 14] [%] | pest or weed control at 1000 g/ha [3, 15] [%] | pest or weed control at 1000 g/ha [4, 16] [%] | pest or weed control at 1000 g/ha (Setaria faberi (SETFA) [5]; [17]) [%] | pest or weed control at 1000 g/ha (Solanum nigrum (SOLNI) [6]; [18]) [%] | pest or weed control at 1000 g/ha [7, 19] [%] | pest or weed control at 1000 g/ha [8, 20] [%] | pest or weed control at 1000 g/ha [9, 21] [%] | pest or weed control at 1000 g/ha [10, 22] [%] | pest or weed control at 1000 g/ha (Setaria faberi (SETFA) [11]; [23]) [%] | pest or weed control at 1000 g/ha (Solanum nigrum (SOLNI) [12]; [24]) [%] | pest or weed control at 1000 g/ha [1, 25] [%] | pest or weed control at 1000 g/ha [2, 26] [%] | pest or weed control at 1000 g/ha [3, 27] [%] | pest or weed control at 1000 g/ha [4, 28] [%] | pest or weed control at 1000 g/ha (Setaria faberi (SETFA) [5]; [29]) [%] | pest or weed control at 1000 g/ha (Solanum nigrum (SOLNI) [6]; [30]) [%] | pest or weed control at 1000 g/ha [7, 31] [%] | pest or weed control at 1000 g/ha [8, 32] [%] | other results |
| --- | --- | --- | --- | --- | --- | --- | --- | --- | --- | --- | --- | --- | --- | --- | --- | --- | --- | --- | --- | --- | --- |
| COC(=O)c1nc(C2CC2)nc(NCC(F)c2ccccc2Br)c1Cl (stereo not drawn) [Compound 4-234, 4-[2-(2-Bromophenyl)-2-fluoro-ethylamino]-5-chloro-2-cyclopropyl-6-methoxycarbonyl-pyrimidine] | 0 | 10 | 0 | 0 | 0 | 0 | 0 | 90 | 20 | 60 | 30 | 70 |  |  |  |  |  |  |  |  |  |
| COC(=O)c1nc(C2CC2)nc(NCCc2ccc(S(N)(=O)=O)cc2)c1Cl [Compound 4-222, 4-[2-(4-Amino-sulphonylphenyl)-ethylamino]-5-chloro-2-cyclo-propyl-6-methoxy-carbonylpyrimidine] | 0 | 30 | 0 | 10 | 0 | 0 | 0 | 30 | 0 | 60 | 0 | 20 |  |  |  |  |  |  |  |  |  |
| COC(=O)c1nc(C2CC2)nc(NCc2ccc(S(N)(=O)=O)cc2)c1Cl [Compound 4-93, 4-(4-Aminosulphonyl-phenyl)methylamino-5-chloro-2-cyclopropyl-6-methoxycarbonyl-pyrimidine] | 0 | 30 | 0 | 40 | 0 | 0 | 0 | 30 | 0 | 70 | 0 | 50 |  |  |  |  |  |  |  |  |  |
| Cc1ccc(CNc2nc(C3CC3)nc(C(=O)O)c2Cl)cc1 [Compound 1-73, 5-Chloro-2-cyclo-propyl-4-(4-methyl-phenylmethyl-amino)pyrimidine-6-carboxylic acid] | 10 | 70 | 10 | 60 | 30 | 80 | 10 | 100 | 30 | 80 | 50 | 80 |  |  |  |  |  |  |  |  |  |
| CCCCOc1ccc(CNc2nc(C3CC3)nc(C(=O)OC)c2Cl)cc1 [Compound 4-82, 4-(4-^nButoxyphenyl-methylamino)-5-chloro-2-cyclo-propyl-6-methoxy-carbonylpyrimidine] | 40 | 90 | 60 | 100 | 80 | 90 | 30 | 100 | 60 | 100 | 80 | 100 |  |  |  |  |  |  |  |  |  |
| COC(=O)c1nc(C2CC2)nc(N(C)Cc2ccc(C)o2)c1Cl [Compound 5-135, 5-Chloro-2-cyclopropyl-6-methoxycarbonyl-4-[N-methyl-N-(5-methylfuran-2-ylmethyl)-amino]-pyrimidine] |  |  |  |  |  |  |  |  |  |  |  |  | 30 | 100 | 0 | 100 | 10 | 90 | 30 | 100 | pest or weed control at 1000 g/ha [9, 33]: 40%; pest or weed control at 1000 g/ha [10, 34]: 100%; pest or weed control at 1000 g/ha (Setaria faberi (SETFA) [11]; [35]): 80%; pest or weed control at 1000 g/ha (Solanum nigrum (SOLNI) [12]; [36]): 90% |
| COC(=O)c1nc(C2CC2)nc(N(Cc2ccccc2)Cc2ccccc2)c1Cl [Compound 155-60, 5-Chloro-2-cyclopropyl-4-dibenzylamino-6-methoxycarbonyl-pyrimidine] |  |  |  |  |  |  |  |  |  |  |  |  | 0 | 30 | 0 | 40 | 0 | 0 | 10 | 70 | pest or weed control at 1000 g/ha [9, 33]: 10%; pest or weed control at 1000 g/ha [10, 34]: 80%; pest or weed control at 1000 g/ha (Setaria faberi (SETFA) [11]; [35]): 40%; pest or weed control at 1000 g/ha (Solanum nigrum (SOLNI) [12]; [36]): 80% |
| COC(=O)c1nc(Cl)nc(NCc2ccccc2)c1Cl [Compound 207-35, 2,5-Dichloro-6-methoxycarbonyl-4-phenylmethylamino-pyrimidine] |  |  |  |  |  |  |  |  |  |  |  |  | 10 | 30 | 10 | 10 | 0 | 0 | 30 | 50 | pest or weed control at 1000 g/ha [9, 33]: 20%; pest or weed control at 1000 g/ha [10, 34]: 10%; pest or weed control at 1000 g/ha (Setaria faberi (SETFA) [11]; [35]): 30%; pest or weed control at 1000 g/ha (Solanum nigrum (SOLNI) [12]; [36]): 60% |
| COC(=O)c1nc(C2CC2)nc(NCc2cccc(I)c2)c1Cl [Compound 4-70, 5-Chloro-2-cyclopropyl-4-(3-iodophenylmethyl-amino)-6-methoxy-carbonylpyrimidine] | 10 | 40 | 30 | 60 | 20 | 30 | 20 | 100 | 70 | 100 | 90 | 100 |  |  |  |  |  |  |  |  |  |
